Row | Compound | melting point [°C]
1 | CNC(=O)CN1CCc2cc(Nc3ncc(Cl)c(Nc4ccccc4OC)n3)c(OC)cc2CC1 | 81 to 95
2 | Cc1noc(C)c1-c1cn(Cc2ccccc2)c(=O)c2ccncc12 | 159 to 161
3 | CCOC(=O)C(=O)Nc1ncccc1C#N | 95 to 97
4 | CCc1nccn1Cc1ccc2c(c1)Cc1c(-c3ccsc3)n[nH]c1-2 | 129 to 132
5 | NC(=O)c1nn(-c2ccc3c(c2)OCO3)c2c1CCc1ccc(NC(=O)c3cccnc3N)cc1-2 | 265 to 267
6 | COc1cc(Nc2nccc(Nc3cccc(CCO)c3)n2)cc(OC)c1OC | 72
7 | CCCCn1cc(C(=O)O)c2ccccc21 | 124 to 126
8 | O=C1c2c(ccc3c2OCCO3)S(=O)(=O)N1CCCCBr | 135 to 136
9 | CC(C)CC(=O)OCC(COC(=O)CC(C)C)OCn1cnc2c(=O)[nH]c(N)nc21 | 215 to 217
10 | CCC1(O)CCC2(C)C(CCC3C4CCC(C5(C)OCCO5)C4(C)CC(=O)C32)C1 (stereo not given) | 144
11 | COc1ccc(-c2nc3nccnc3[nH]2)c(OC)c1 | 210 to 215
12 | Cc1ccc2nc3cc(C)c(=O)c(Cl)c-3sc2c1 | 193 to 195
13 | CCN(CC)CC(=O)Nc1ccc(C2=NN=C(C)Cc3cc4c(cc32)OCO4)cc1 | 157 to 158
14 | O=C(C(=O)c1cccc(C#Cc2ccccc2)c1)c1cccc(C#Cc2ccccc2)c1 | 144 to 145
15 | CCCCC1Oc2ccc(NC(C)=O)cc2C1O (stereo not given) | 134 to 137
16 | Cc1cc2[nH]ncc2cc1NC1=NCCS1 | 218 to 221
17 | CC(C)Nc1cccnc1N1CCN(C(=O)c2ccc(C(=O)NC(CO)CO)cn2)CC1 | 90 to 93
18 | Cn1c(C(F)(F)F)cc(=O)n(-c2ccc3snc(C4OCC(CS(C)(=O)=O)O4)c3c2)c1=O (stereo not given) | 184 to 188
19 | COc1ccc(CNC(=O)C(OC)OC)cc1OC | 60
20 | CCCCCCCCCCCCCCCCN(CC(O)CO)C(C)=O (stereo not given) | 56 to 58
21 | O=C1c2ccc(Cl)cc2CC1Sc1ccccc1 (stereo not given) | 89
22 | O=C1c2ccccc2C(O)N1CCCCCO[N+](=O)[O-] (stereo not given) | 70 to 72
23 | CCCCOCCOc1ccc(-c2ccc3c(c2)C=C(C(=O)Nc2ccc(CCCn4cnnc4)cc2)CCN3CCC)cc1 | 191 to 194
24 | CC(=NO)C(=O)c1ccc(NS(C)(=O)=O)c(Sc2ccc(F)cc2F)c1 | 140 to 143
25 | CN(Cc1cnc(Cl)s1)C(=N)N[N+](=O)[O-] | 116 to 117

Row | Compound | melting point [°C]
26 | CCc1nc(COc2ccc(NC(=O)/C=C/c3cnn(C)c3-c3ccc(F)cc3)cc2)cs1 | 98 to 99
27 | Fc1ccc(-c2cc(C(F)(F)F)n3ncc(-c4ccncc4)c3n2)cc1Cl | 265
28 | Cc1nc(N)sc1-c1cccnc1 | 190 to 191
29 | Nc1c(Cl)ccc2c1NCCC2=O | 105 to 109
30 | N#Cc1ccc(CCc2ccc(CN3C(=O)c4ccccc4C3=O)cc2)cc1 | 194 to 197
31 | N#Cc1cc(Cl)ccc1N1CCN(Cc2cn3cc(Cl)ccc3n2)CC1 | 191 to 192
32 | CC(=O)Nc1ccc(C(=O)O)cc1O | 249
33 | C=C(COC(=O)CCCCCCBr)COC(=O)NCCCCCCCCCCCCCCCCCC | 49
34 | Cc1ccc(N2CCN(Cc3c[nH]c4ncccc34)CC2)nc1 | 204 to 205
35 | CCC(Oc1cc(F)ccc1F)C1=NCCN1 (stereo not given) | 110
36 | COc1cc(OC)nc(Nc2cc(C)ccc2N)n1 | 128 to 129
37 | CCCOc1cc(N(CC)CC)ccc1-c1nc2cc3c(cc2[nH]1)C(C)(C)CC(=O)N3 | 147 to 148
38 | CC(=O)Nc1cccc(-c2nc3ncccc3[nH]2)c1 | > 250
39 | CCOC(=O)C1(C(=O)OCC)Oc2c(ccc(OC)c2Cl)C1O (stereo not given) | 116 to 117
40 | Cn1c(=O)c(-c2ccc(Cl)cc2Cl)cc2c3cc(-c4c[nH]nn4)ccc3n(C)c21 | 274 to 275
41 | CCCSC1=NSc2ccccc2N1Cc1ccc(-c2ccccc2C(=O)O)cc1 | 75 to 85
42 | Cc1cc2c(-c3ccccc3)noc2c2c1OC(C(=O)O)C2 (stereo not given) | 210 to 213
43 | C[C@@H](N(C(=O)CN)C(=O)c1ccc(C(F)(F)F)cc1)[C@](O)(Cn1cncn1)c1ccc(F)cc1F (relative stereo) | 147 to 148
44 | O=C(C1CSC(c2cccnc2)N1)N1CCN(c2ncccn2)CC1 (stereo not given) | 156 to 159
45 | CC(=O)Oc1ccc2nc(S(N)(=O)=O)sc2c1 | 193 to 194
46 | O=C(O)c1ccc(-c2ccccn2)cc1 | 232 to 234
47 | O=C(Nc1ccc(-c2cnc(-c3ccc(NC(=O)c4cccnc4)cc3)[nH]2)cc1)c1cccnc1 | 317 to 319
48 | O=C1COc2ccc(Br)cc2N1O | 201 to 204
49 | CC(=O)NCCC(=O)NCCO | 122 to 125
50 | O=C(c1cccc(Cl)c1)N1CCc2cc(S(=O)(=O)N3CCN(c4cccc(Cl)c4)CC3)ccc21 | 221 to 222

From a melting point compilation (Tetko et al.; mined from patent text by program, amines drawn as free bases though some values may be those of a salt)
